One assay concerns rat. The assay is described as follows: Metrazole (pentylenetetrazole) test for anticonvulsant activity. The assay is classed as in vivo. As to conditions: po. An excerpt: Anticonvulsant effects are observed, for example in the standard Metrazole (pentylenetetrazole) test for assessing anticonvulsant activity, e.g. orally in the rat as described in U.S. Pat. No. 4,479,955.
In assay [1] the target is benzodiazepine receptor. The assay is described as follows: in vitro benzodiazepine receptor binding assay, tritiated flunitrazepam as radioactive ligand. Particulars: 0.5 nM tritiated flunitrazepam; read-out: IC50, concentration required to inhibit the specific binding of tritiated flunitrazepam by 50%. The protocol:
The benzodiazepine receptor binding properties indicative of the nervous system regulatory activity of said new compounds are determined in the receptor binding assay in vitro, e.g. similarly to that in Nature 266, 732 (1977) or Proc. Nat. Acad. Sci. USA 74, 3805 (1977), using tritiated flunitrazepam as the radioactive ligand. The concentration of the compounds of this invention, required to inhibit the specific binding of 0.5 nM of tritiated flunitrazepam by 50%, i.e. the IC50, is determined graphically.

Assay [2] relates to benzodiazepine receptor. The assay is described as follows: in vivo benzodiazepine receptor binding (3H-flunitrazepam binding in brain). Particulars: mouse. As to the method: In vivo benzodiazepine receptor binding is determined essentially as described in Eur. J. Pharmacol. 48, 213 (1978) and Nature 275, 551 (1978). Test compounds in a corn starch vehicle are administered orally or intraperitoneally to mice or rats. A decrease in the binding of ^3 H-flunitrazepam in the brain of drug-treated animals (as compared with the binding observed in animals treated with vehicle alone) is indicative of benzodiazepine receptor binding by the test compound.

What is called ED50 is the midpoint of the dose-response relation.

The structures appear in SMILES notation. pIC50: −log10 of the molar value.

`Cl.c1ccc(-c2nnc3n2-c2ccccc2Cn2cccc2-3)nc1` [Example 1, 3-(2-Pyridinyl)-9H-pyrrolo[2,1-c]-1,2,4-triazolo[4,3-a][1,4]benzodiazepine Hydrochloride]: in the assay on rat, the ED50 was approximately 3 mg/kg. Moreover, on benzodiazepine receptor [1], the pIC50 is approximately 8.40. The “inhibition of flunitrazepam binding in vivo” value (“inhibition” for short) in the assay with benzodiazepine receptor [2] (30 mg/kg p.o.) is listed as “about 67%”.

As to `Cl.Clc1ccc2c(c1)-n1c(-c3ccccn3)nnc1-c1cccn1C2` [Example 3, 6-Chloro-3-(2-pyridinyl)-9H-pyrrolo[2,1-c]-1,2,4-triazolo[4,3-a][1,4]benzodiazepine Hydrochloride], the pIC50 at benzodiazepine receptor [1] is approximately 9.15. In addition, the “inhibition” value with benzodiazepine receptor [2] (5.3 mg/kg p.o.) is approximately 50%.

In the case of `Cl.FC(F)(F)c1ccc2c(c1)-n1c(-c3ccccn3)nnc1-c1cccn1C2` [Example 4, 6-Trifluoromethyl-3-(2-pyridinyl)-9H-pyrrolo[2,1-c]-1,2,4-triazolo[4,3-a][1,4]benzodiazepine Hydrochloride], the pIC50 on benzodiazepine receptor [1] was approximately 9.40. Also, the “inhibition” value in the assay on benzodiazepine receptor [2] (0.6 mg/kg p.o.) is reported as approximately 50%.

With `COc1cc2c(cc1OC)-n1c(-c3ccccn3)nnc1-c1cccn1C2.Cl` [Example 7f, 6,7-dimethoxy-3-(2-pyridinyl)-9H-pyrrolo[2,1-c]-1,2,4-triazolo[4,3-a][1,4]benzodiazepine hydrochloride], the pIC50 on benzodiazepine receptor [1] is approximately 9.00. Besides, in the assay with benzodiazepine receptor [2] (30 mg/kg p.o.), the “inhibition” value is recorded as approximately 75%.
